For one assay, the system named is Ucp3 promoter. Kind of assay: ChIP of endogenous NCoR1 recruitment to the Ucp3 promoter PPREs in C2C12 myotubes. It counts as cell-based, mouse. The following applies: 6 hr after addition of 100 nM GW501516. The source says: (A, B, E, F, and H) NCoR1 recruitment to the PPREs on mouse Ucp3 promoter and to the ERR-RE on human and mouse Pdk4 promoter determined by ChIP in NIH-3T3 cells transfected with an NCoR1-FLAG vector or in C2C12 myotubes. A schematic of the promoters of the Ucp3 (A) and Pdk4 (E) genes and the sequence alignment of the mouse, rat and human Pdk4 promoter is also shown to highlight the conservation of the NR1/2 (or ERR-RE) (E). Boxes indicate putative PPREs in the Ucp3 and the NR1/2, IRS, and Sp1 in the Pdk4 promoter. ChIP experiments for the Ucp3 promoter were performed in C2C12 myotubes both before and 6 hr after addition of a PPARIβ/δ (100 nM GW501516); not detected. ChIP experiments in HEK293 cells transfected with FLAG-NCoR1 and HA-ERRα vector (H). (C and G) Binding of acetylated histone 4 (H4) to the PPREs on the Ucp3 and to the NR1/2 on the Pdk4 promoters in ChIP assays, using either immortalized NCoR1^L2/L2MEFs, infected with an adenovirus either expressing GFP or Cre recombinase, or C2C12 myotubes infected with the Ad-shNCoR1 virus. Representative data is shown from 3 experiments. (D) Interaction between PPARβ/δ and NCoR1 determined by in vitro co-IP experiments from HEK293 cells, in which NCoR1-FLAG and/or V5-PPARβ/δ are expressed. […] Data are expressed as mean±SEM. […]

Assay [1] deals with NCoR1. The assay can be described thus: NCoR1 mRNA and protein in MEFs cultured with oleic acid. Format: cell-based, mouse. The following applies: oleic acid added to the medium (0.03 mM, 48 hr), independently of the glucose concentration. On the procedure: (A-C) Localization of NCoR1 protein was determined either by immunofluorescence and quantified (A and B) and by western blot (C). 293T cells grown without (−) or with (+) 1 µM insulin for 1 hr were stained by DAPI or anti-NCoR1 (A). Quantification of nuclear NCoR1 is shown in (B). Nuclear and cytosolic fractions were separated from FLAG-NCoR1 transfected 293T cells after a 1 hr-stimulation without (−) or with 1 μM insulin (+) and protein levels were determined by western blotting (C). (D) mRNA levels of NCoRs and its target genes determined by qRT-PCR in MEFs cultured for 24 hr in 5 or 25 mM glucose (n=6). (E) NCoR1 protein was determined by western blotting from MEFs cultured for 24 hr in 5 or 25 mM glucose. (F) NCoR1 and SMRT mRNA was determined in MEFs cultured for 48 hr in 0, 5, and 25 mM glucose. (G) NCoR1 protein was determined by western blotting from MEFs cultured for 24 hrs in 0, 5, or 25 mM glucose. […] (I) NCoR1 protein determined by western blotting from MEFs cultured as indicated in (G). (J) NCoR1 mRNA measured by qRT-PCR in muscles of resting mice or 3 hrs after an endurance run (14-wk old; n=5), in mice that were fed for 20 wks either with HFD or CD (28-wk old; n=8), in mice that were fasted or fed for 16 hrs (14-wk old; n=10), and in 6-month or 2-year old mice (n=10). […] Data are expressed as mean±SEM. […]

The next assay deals with SMRT. The assay can be described thus: SMRT mRNA in MEFs cultured with oleic acid. It counts as cell-based, mouse. As to conditions: with OA in the absence of glucose. As to the method:
The mRNA expression levels were measured in cells and tissues using qRT-PCR (Lagouge et al., 2006).

Assay [2] concerns NCoR1. Kind of assay: NCoR1 localization by immunofluorescence and subcellular fractionation in 293T cells. Format: cell-based. As to conditions: one hour after stimulation with 1 μM insulin. As to the method:
(A-C) Localization of NCoR1 protein was determined either by immunofluorescence and quantified (A and B) and by western blot (C). 293T cells grown without (−) or with (+) 1 µM insulin for 1 hr were stained by DAPI or anti-NCoR1 (A). Quantification of nuclear NCoR1 is shown in (B). Nuclear and cytosolic fractions were separated from FLAG-NCoR1 transfected 293T cells after a 1 hr-stimulation without (−) or with 1 μM insulin (+) and protein levels were determined by western blotting (C). (D) mRNA levels of NCoRs and its target genes determined by qRT-PCR in MEFs cultured for 24 hr in 5 or 25 mM glucose (n=6). (E) NCoR1 protein was determined by western blotting from MEFs cultured for 24 hr in 5 or 25 mM glucose. (F) NCoR1 and SMRT mRNA was determined in MEFs cultured for 48 hr in 0, 5, and 25 mM glucose. (G) NCoR1 protein was determined by western blotting from MEFs cultured for 24 hrs in 0, 5, or 25 mM glucose. […] (I) NCoR1 protein determined by western blotting from MEFs cultured as indicated in (G). (J) NCoR1 mRNA measured by qRT-PCR in muscles of resting mice or 3 hrs after an endurance run (14-wk old; n=5), in mice that were fed for 20 wks either with HFD or CD (28-wk old; n=8), in mice that were fasted or fed for 16 hrs (14-wk old; n=10), and in 6-month or 2-year old mice (n=10). […] Data are expressed as mean±SEM.
(A) Localization of NCoR1 is determined by the immunofluorescence experiments. […]

Take `Cc1cc(SCc2sc(-c3ccc(C(F)(F)F)cc3)nc2C)ccc1OCC(=O)O` [GW501516]: the “recruitment of NCoR1 to the Ucp3 promoter” value with Ucp3 promoter is “robustly inhibited”.
Turning to `CCCCCCCC/C=C\CCCCCCCC(=O)O` [oleic acid], in the assay on NCoR1 [1], the NCoR1 levels entry is given as “decreased”. In addition, in the assay on SMRT, the “SMRT mRNA levels” value is “only a small difference”.
Regarding insulin, the “amounts of endogenous NCoR1 or transfected FLAG-NCoR1 detected in nuclei” value in the assay with NCoR1 [2] is listed as “higher amounts”.
